From patent publication US20130064768A1, “LIPOPHILIC CATIONIC PROBE FOR PET-IMAGING” (Medical Research Council, priority 2010, published 2013)
Like-named read-outs stand apart in the source and are kept apart here. One block for each compound: values may come before it.

Legend:
[1] = Tissue and blood distribution of [3H]TPP compounds after iv tail vein injection
Procedure: A sample of the [^3H]compound solution injected was retained to calculate the specific activity, which was subsequently used to determine the tissue content of the compound. At the indicated times after injection, the mice were killed by cervical dislocation and a blood sample of ˜100-200 μL was obtained by cardiac puncture. The organs were then removed, cleared of blood, transferred to pre-chilled Eppendorf tubes on ice, weighed and stored at −80° C. until processing. The tissues taken were: heart, kidneys, liver, brain, skeletal muscle (gastrocnemius) and white adipose tissue (subcutaneous). […] The mice were monitored after injection to ensure no pathology or distress and all procedures were carried out under the approval of the University of Otago animal ethics committee.
Extraction of [^3H] Compounds from Tissues Tissues were thawed at room temperature and transferred to 50 mL Falcon tubes. Ice-cold methanol 4° C.; 1 mL/100 mg tissue wet weight) was added to the tissue and the tissue homogenised using an Ultraturrax homogeniser (2×30 s on ice).
The homogenate was transferred in 1 mL batches to 1.5 mL Eppendorf tubes and centrifuged (10,000×g for 8 min at 4° C.). The methanol extract was decanted into a 20 ml glass scintillation vial (Wheaton) and the methanol evaporated under a stream of N2. Further ice-cold methanol (1 mL/100 mg) was added to the tissue homogenate pellets, vortexed for 1 min, centrifuged as above and the methanol extract decanted to a fresh 20 mL glass scintillation vial and evaporated. This procedure was repeated 3 more times to give 5 extracts per tissue sample. […] The specific activity of the injected [^3H] compound was then used to calculate the tissue content uptake as mol compound/g wet weight tissue. The half lives of compounds in organs were determined from the first order rate constants for loss of [^3H] compound from the organs, measured as the slope of ln[TPP compound] against time for the first 5 h after iv injection.

[2] = published values; cited from earlier work
[3] = test system: mitochondrial membrane potential; experiment: Effect of the uncoupler DNP on organ uptake of [3H]FluoroUndecylTPP in vivo; parameters: species or system mice; conditions: DNP 200 or 300 μg/kg ip 15 min after probe, organs taken 15 min later; dose dependent
Procedure: (§1) After 15 min the mice were injected ip with DNP (200 or 300 μg/kg) or saline carrier and after a further 15 min later they were killed and the content of [^3H]FluoroUndecylTPP in the tissues determined. Data are means ± range for two mice per condition. B, IAM-TPP is shown being taken up in to mitochondria within a cell where it reacts with thiol proteins to form a thioether adduct that can then be detected by immunoblotting. C, Confocal image of IAM-TPP binding to mitochondria in cells. C2C12 cells were incubated with 1 μM IAM-TPP for 3 h±10 μM FCCP. The cells were then fixed and the location of the TPP moiety within the cells determined by labelling with antiserum against the TPP moiety, visualised by immunofluorescence confocal microscopy. […] The mitochondria (40 μg protein) were separated by SDS-PAGE and proteins that had been labelled with IAM-TPP were detected by immunoblotting using antiserum against the TPP moiety. […]
Therefore it is likely that once the alkylTPP compounds are accumulated within tissues they are predominantly localised within mitochondria, driven by the membrane potential. To see if this was the case in these experiments, it was next determined if the uptake of the alkylTPP compounds in vivo was decreased by lowering the mitochondrial membrane potential. […]

[4] = Octan-1-ol/PBS partition coefficient; conditions: determined in this study
[5] = test system: liver and heart mitochondria; experiment: IAM-TPP uptake by mitochondria in vivo (immunoblot with anti-TPP antiserum); parameters: species or system mice; conditions: 500 nmol iv, mitochondria isolated 1 h later
Procedure: as §1
(§2) To assess uptake of IAM-TPP by mitochondria in vivo, mice were injected iv by the tail vein as above with 500 nmol IAM-TPP in 100 μL sterile PBS. One hour later the mice were killed by cervical dislocation and liver and heart mitochondria prepared by homogenisation followed by differential centrifugation and the protein content determined by the bicinchoninic acid assay using bovine serum albumin as a standard. […]

[6] = test system: mitochondrial protein thiols; experiment: Incubation of IAM-TPP with isolated mitochondria; conditions: data not shown
C2C12 cells = experiment: IAM-TPP uptake into mitochondria within cells (immunocytochemistry, confocal microscopy); format: cell-based, mouse; conditions: 1 μM, 3 h, ±10 μM FCCP
Procedure: as §1, §2

[7] = Monitoring of mice for toxicity after iv injection of TPP cations; format: in vivo; conditions: 100 nmol iv in mice
Procedure: Female C57/BL6 mice (20-25 g) were maintained on a 12 h light/dark cycle with ad libitum access to standard lab chow and water. […] A sample of the [^3H]compound solution injected was retained to calculate the specific activity, which was subsequently used to determine the tissue content of the compound. At the indicated times after injection, the mice were killed by cervical dislocation and a blood sample of ˜100-200 μL was obtained by cardiac puncture. The organs were then removed, cleared of blood, transferred to pre-chilled Eppendorf tubes on ice, weighed and stored at −80° C. until processing. The tissues taken were: heart, kidneys, liver, brain, skeletal muscle (gastrocnemius) and white adipose tissue (subcutaneous). […] The mice were monitored after injection to ensure no pathology or distress and all procedures were carried out under the approval of the University of Otago animal ethics committee.

[8] = 24 h after iv injection, other studies; cited from earlier work
[9] = mice, 100 nmol iv bolus, first 5 h after injection

half life for clearance from fat and muscle ([1]; mouse, in vivo, iv): 7 to 12 h
half life for loss from the heart ([1]; mouse, in vivo, iv): ~15 h
half life for loss from the kidneys ([1]; mouse, in vivo, iv): ~3 h
half life for loss from the liver ([1]; mouse, in vivo, iv): ~3 h
Structure (SMILES): CCCCCCCCCC[P+](c1ccccc1)(c1ccccc1)c1ccccc1 [DecylTPP]
Octanol/PBS partition coefficient [2]: 5000

half life for loss from the heart [1, 9]: ~21 h
half life for loss from the kidneys [1, 9]: ~3 h
half life for loss from the liver [1, 9]: ~3 h
enhancement of organ/blood concentration ratio relative to TPMP ([1]; mice, iv): over a hundred-fold
Structure (SMILES): CS(=O)(=O)[O-].FCCCCCCCCCCC[P+](c1ccccc1)(c1ccccc1)c1ccccc1 [FluoroUndecylTPP, 11-fluoroundecyltriphenylphosphonium mesylate]
decrease of uptake into the organs by DNP [3]: up to 40%

Octanol/PBS partition coefficient [4]: 19±1
Structure (SMILES): CS(=O)(=O)[O-].O=C(CI)NCCCCC[P+](c1ccccc1)(c1ccccc1)c1ccccc1 [IAM-TPP]
labelling of mitochondrial proteins in vivo [5]: labelling of heart and liver mitochondrial proteins
reaction with protein thiols of isolated mitochondria [6]: rapidly reacted with protein thiols
localisation within cells (C2C12 cells): uncoupler-sensitive localisation of IAM-TPP within mitochondria

Structure (SMILES): COC1=C(OC)C(=O)C(CCCCCCCCCC[P+](c2ccccc2)(c2ccccc2)c2ccccc2)=C(C)C1=O [MitoQ]
toxicity of the injected amount [7]: non-toxic
uptake by muscle and adipose tissue ([1]; 1 h after 100 nmol iv): lower uptake
uptake by the brain ([1]; 1 h after 100 nmol iv): very little uptake
uptake by the heart ([1]; 1 h after 100 nmol iv): less extensive uptake
uptake by the liver and kidneys ([1]; 1 h after 100 nmol iv): extensive uptake
heart/blood ratio, in ratio (TPMP = 1) ([1]; 1 h after iv injection): 11
uptake into the heart, ratio (TPMP = 1) ([1]; 1 h after iv injection): 6
heart/blood ratio, in ratio (TPMP = 1) ([1]; 5 h after iv injection): 26
uptake into the heart, ratio (TPMP = 1) ([1]; 5 h after iv injection): 10
half life for loss from the heart [1, 9]: ~15 h
half life for loss from the kidneys [1, 9]: ~4 h
half life for loss from the liver [1, 9]: ~2 h
time of maximum uptake into tissues ([1]; mice, 100 nmol iv, earliest time measurable): 5 min
MitoQ eliminated [8]: ~80%
Octanol/PBS partition coefficient [2]: 2760

Structure (SMILES): C[P+](c1ccccc1)(c1ccccc1)c1ccccc1 [TPMP]
half life for loss from the heart [1, 9]: ~2 h
half life for loss from the kidneys [1, 9]: ~2 h
half life for loss from the liver [1, 9]: ~3 h
half life for clearance from fat and muscle ([1]; mice, 100 nmol iv bolus, estimate only): 1 to 2 h
